Patent US8952024B2, “Herbicidal pyrimidone derivatives” (E I du Pont de Nemours and Company, priority 2009, dated 2015)

Experiments:
Type in all cases: in vivo
[1] = test system: winter barley (Hordeum vulgare); test: Test B postemergence plant response; details: for Plant response rating, Barley: Postemergence
Source text: At the same time, plants selected from these crop and weed species and also winter barley (Hordeum vulgare), canarygrass (Phalaris minor), chickweed (Stellaria media) and windgrass (Apera spica-venti) were planted in pots containing Redi-Earth® planting medium (Scotts Company, 14111 Scottslawn Road, Marysville, Ohio 43041) comprising spaghnum peat moss, vermiculite, wetting agent and starter nutrients and treated with postemergence applications of some of the test chemicals formulated in the same manner. Plants ranged in height from 2 to 18 cm (1- to 4-leaf stage) for postemergence treatments.
Treated plants and controls were maintained in a greenhouse for 13 to 15 days, after which time all treated plants were visually evaluated and compared to controls. Plant response ratings, summarized in Table B, are based on a scale of 0 to 100 where 0 is no effect and 100 is complete control. A dash (-) response means no test result.

[2] = test system: barnyardgrass (Echinochloa crus-galli); test: Test A pre-/postemergence plant response; details: for Barnyardgrass plant response rating: visual injury, 0 to 100 scale (0 no effect, 100 complete control), approx. ten days
Outline: (§1)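 Greenhouse trial, ~10 days. Soil (loam/sand) sprayed preemergence after seeding; emerged plants (1–2 leaf, 2–10 cm) sprayed postemergence in parallel. Response = visual injury vs untreated control, 0–100.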

[3] = test system: morningglory (Ipomoea spp.); test: Test A pre-/postemergence plant response; details: for Morningglory plant response rating: visual injury, 0 to 100 scale (0 no effect, 100 complete control), approx. ten days
Outline: as §1

[4] = test system: velvetleaf (Abutilon theophrasti); test: Test A pre-/postemergence plant response; details: for Velvetleaf plant response rating: visual injury, 0 to 100 scale (0 no effect, 100 complete control), approx. ten days
Outline: as §1

[5] = test system: pigweed (Amaranthus retroflexus); test: Test A pre-/postemergence plant response; details: for Pigweed plant response rating: visual injury, 0 to 100 scale (0 no effect, 100 complete control), approx. ten days
Outline: as §1

[6] = test system: wheat (Triticum aestivum); test: Test A pre-/postemergence plant response; details: for Wheat plant response rating: visual injury, 0 to 100 scale (0 no effect, 100 complete control), approx. ten days
Outline: as §1

[7] = test system: large crabgrass (Digitaria sanguinalis); test: Test A pre-/postemergence plant response; details: for Crabgrass, Large plant response rating: visual injury, 0 to 100 scale (0 no effect, 100 complete control), approx. ten days
Outline: as §1

[8] = test system: giant foxtail (Setaria faberii); test: Test A pre-/postemergence plant response; details: for Foxtail, Giant plant response rating: visual injury, 0 to 100 scale (0 no effect, 100 complete control), approx. ten days
Outline: as §1

[9] = test system: corn (Zea mays); test: Test A pre-/postemergence plant response; details: for Corn plant response rating: visual injury, 0 to 100 scale (0 no effect, 100 complete control), approx. ten days
Outline: as §1

[10] = 31 g ai/ha, 0 to 100 scale (0 no effect, 100 complete control)
[11] = Postemergence, 125 g ai/ha, 0 to 100 scale where 0 is no effect and 100 is complete control
[12] = Preemergence, 125 g ai/ha, 0 to 100 scale, 0 = no effect, 100 = complete control
[13] = Preemergence, 500 g ai/ha, 0 to 100 scale, 0 = no effect, 100 = complete control

Row | SMILES | Plant response rating, Barley ([1]; 16 g ai/ha, 0 to 100 scale) | Plant response rating, Barley [1, 10] | Plant response rating, Barnyardgrass [2, 11] | Barnyardgrass plant response rating ([2]; Postemergence, 500 g ai/ha) | Plant response rating, Barnyardgrass [2, 12] | Plant response rating, Barnyardgrass [2, 13] | Plant response rating, Morningglory [3, 11] | Morningglory plant response rating ([3]; Postemergence, 500 g ai/ha) | Plant response rating, Morningglory [3, 12] | Plant response rating, Morningglory [3, 13] | Plant response rating, Velvetleaf [4, 11] | Velvetleaf plant response rating ([4]; Postemergence, 500 g ai/ha) | Plant response rating, Velvetleaf [4, 12] | Plant response rating, Velvetleaf [4, 13] | Plant response rating, Pigweed [5, 11] | Pigweed plant response rating ([5]; Postemergence, 500 g ai/ha) | Plant response rating, Pigweed [5, 12] | Plant response rating, Pigweed [5, 13] | Plant response rating, Wheat [6, 11] | Wheat plant response rating ([6]; Postemergence, 500 g ai/ha) | other results
1 | Cc1ccccc1-n1c(-c2cc(F)cc(F)c2)ncc(C(=O)C2=C(O)CCCC2=O)c1=O [Compound 159] | 20 | 20 | 90 | 100 | 30 | 90 | 100 | 100 | 0 | 50 | 100 | 100 | 70 | 100 | 100 | 100 | 100 | 100 | 10 | 60 | Plant response rating, Barley ([1]; 8 g ai/ha, 0 to 100 scale): 0; Barley plant response rating (0 to 100 scale) ([1]; 62 g ai/ha, postemergence, 0 is no effect, 100 is complete control, 13 to 15 days): 50; Plant response rating, Wheat [6, 12]: 0; Plant response rating, Wheat [6, 13]: 20; Plant response rating, Crabgrass, Large [7, 11]: 90; Crabgrass, Large plant response rating ([7]; Postemergence, 500 g ai/ha): 90; Plant response rating, Crabgrass, Large [7, 12]: 80; Plant response rating, Crabgrass, Large [7, 13]: 100; Plant response rating, Foxtail, Giant [8, 11]: 90; Foxtail, Giant plant response rating ([8]; Postemergence, 500 g ai/ha): 100; Plant response rating, Foxtail, Giant [8, 12]: 60; Plant response rating, Foxtail, Giant [8, 13]: 90; Plant response rating, Corn [9, 11]: 0; Corn plant response rating ([9]; Postemergence, 500 g ai/ha): 70; Plant response rating, Corn [9, 12]: 0; Plant response rating, Corn [9, 13]: 40
2 | CC1(C)CC(=O)C(C(=O)c2cnc(-c3ccccc3)n(-c3ccccc3)c2=O)=C(O)C1 [Compound 225] | 5 | 20 | 90 | 100 | 20 | 90 | 100 | 100 | 30 | 80 | 100 | 100 | 80 | 100 | 100 | 100 | 90 | 100 | 0 | 40 | Plant response rating, Barley ([1]; 62 g ai/ha, scale 0 to 100 (0 no effect, 100 complete control)): 35; Plant response rating, Barley ([1]; 125 g ai/ha, scale 0 to 100 (0 no effect, 100 complete control)): 40; Plant response rating, Wheat [6, 12]: 0; Plant response rating, Wheat [6, 13]: 30; Plant response rating, Crabgrass, Large [7, 11]: 90; Crabgrass, Large plant response rating ([7]; Postemergence, 500 g ai/ha): 100; Plant response rating, Crabgrass, Large [7, 12]: 60; Plant response rating, Crabgrass, Large [7, 13]: 100; Plant response rating, Foxtail, Giant [8, 11]: 70; Foxtail, Giant plant response rating ([8]; Postemergence, 500 g ai/ha): 90; Plant response rating, Foxtail, Giant [8, 12]: 40; Plant response rating, Foxtail, Giant [8, 13]: 80; Plant response rating, Corn [9, 11]: 10; Corn plant response rating ([9]; Postemergence, 500 g ai/ha): 50; Plant response rating, Corn [9, 12]: 0; Plant response rating, Corn [9, 13]: 20
